Legend:
[1] = test system: human lung cancer NCI-H2122 subcutaneous xenotransplanted tumor; assay: Pharmacodynamic evaluation in nude mouse subcutaneous xenotransplanted model of human lung cancer NCI-H2122; assay type: in vivo, Balb/c nude mouse; details: 30 mg/kg each agent
Description: The anti-tumor effect and safety of compound 11 of the present invention were evaluated in a Balb/c nude mouse animal model of subcutaneous xenotransplanted NCI-H2122.
BALB/c; nude mice, female, 6-7 weeks old (the age of mice when tumor cells were inoculated), purchased from Jiangsu Jicui Yaokang Biotechnology Co., Ltd.
The solvent control group was given DMSO:castor oil:5% glucose injection=20:10:70 (v/v/v).
(§1) AMG-510: an appropriate amount of AMG-510 was weighed, and an appropriate amount of DMSO:castor oil:5% glucose injection=20:10:70 (v/v/v) was added. After the above mixture was fully dissolved, an appropriate amount of 1 M hydrochloric acid was added, vortexed and mixed to prepare a solution with a concentration of 3 mg/mL.
as §1, with “Compound 11:” for “AMG-510:”, “compound 11” for “AMG-510”
H2122 cells were cultured in 1640 culture medium containing 10% fetal bovine serum and 1% penicillin-streptomycin-amphotericin B solution. H2122 cells in the exponential growth phase were collected and resuspended in matrigel solution (matrigel:PBS=1:1 (V/V)) to a suitable concentration for subcutaneous tumor inoculation in nude mice.
Female Balb/c nude mice were subcutaneously inoculated with about 3.0×10^6H2122 cells on the right sides of their backs. When the average volume of the tumors reaches about 150-200 mm^3, the mice were randomly divided according to the tumor sizes with 6 mice in each group.
• Group 1 (G1), solvent control group; • Group 2 (G2), AMG-510 was given by intragastric administration at a dose of 30 mg/kg; • Group 3 (G3), Example 11 was given by intragastric administration at a dose of 30 mg/kg; • Group 4 (G4), AMG-510 and Example 11 were administered in combination, and the dosages were respectively: AMG-510, 30 mg/kg (QD); Example 11, 30 mg/kg (QD).
After tumor inoculation, routine monitoring included the effects of tumor growth and treatment on the normal behaviors of the animals, specifically the mobility, feeding and drinking, weight gain or loss, eyes, coat and other abnormalities of the experimental animals.
Calculation formulae for a relative tumor volume (RTV), a relative tumor proliferation rate (T/C) and a tumor inhibition percentage (IR) were as follows: • (1) TV (tumor volume)=½×a×b^2, wherein a and b represent the length and width of the tumor respectively; • (2) RTV (relative tumor volume)=Vt/Vo, wherein Vo is the tumor volume measured at the time of administration when grouping (i.e. do), and Vt is the tumor volume at each measurement; • (3) relative tumor proliferation rate T/C (%)=TRTV/CRTV×100%, wherein TRTV is the RTV of the treatment group and CRTV is the RTV of the control group; • (4) Tumor growth inhibition rate TGI(%)=(1−T/C)×100%; wherein, T and C are the relative tumor volumes of the treatment group and the control group at a specific time point. • (5) IR (%)=(1−TWt/TWc)×100%, wherein, TWt is the tumor weight of the treatment group and TWc is the tumor weight of the control group. The anti-tumor evaluation criteria are (cytotoxic drugs): T/C(%)>40% is invalid; T/C(%)≤40%, and after statistical processing, P<0.05 is effective.

[2] = test system: OCI-AML5 cells; assay: Inhibition of OCI-AML5 cell proliferation (CellTiter-Glo); assay type: cell-based; details: Homo sapiens, OCI-AML-5; OCI-AML5 cells (SOS1 N233Y mutation), 120 hours
Description: The following method was used to determine the influence of the compounds of the present invention on OCI-AML5 cells proliferation. OCI-AML5 cells (containing SOS1 N233Y mutation) were purchased from Nanjing Kebai Biotechnology Co., Ltd. and cultured in MEMα medium containing 10% fetal bovine serum, 100 U penicillin, and 100 μg/mL streptomycin. The activities of the cells were determined by CellTiter-Glo® Luminescent Cell Viability Assay Kit (Promega, Art. No. G7573).
The experimental method was operated according to the steps in the kit instruction, which were briefly described as follows: the test compounds were first dissolved in DMSO to prepare storage solutions of 10 mM, and then diluted with culture mediums to prepare test samples. The final concentrations of the compounds were 10000 nM to 0.15 nM. Cells in logarithmic phase were inoculated in a 96-well cell culture plate with 1,000 cells per well, after cultured overnight in 5% CO2 incubator at 37° C., the test compounds were added to the incubator to continue the culture for 120 hours. After the culture was completed, 50 μL of CellTiter-Glo detection solution was added to each well, shaken for 5 minutes and then stood for 10 minutes. Then, a Luminescence mode was used to read the luminescence values of each well of the samples on a microplate reader.

[3] = biological target: T1, KRAS-G12C/SOS1 (Homo sapiens, UniProt Q07889); assay: Blocking the binding of KRAS G12C protein to SOS1 (Cisbio KRAS-G12C/SOS1 binding assay kit, TR-FRET); details: Tag1-SOS1 and Tag2-KRAS-G12C, TR-FRET 665/620; read-out: IC50 (nM) Inhibition of KRAS-G12C/SOS1 binding
T1 construct: purchased Cisbio 63ADK000CB16PEG
T1 sequence (Q07889 1-1333): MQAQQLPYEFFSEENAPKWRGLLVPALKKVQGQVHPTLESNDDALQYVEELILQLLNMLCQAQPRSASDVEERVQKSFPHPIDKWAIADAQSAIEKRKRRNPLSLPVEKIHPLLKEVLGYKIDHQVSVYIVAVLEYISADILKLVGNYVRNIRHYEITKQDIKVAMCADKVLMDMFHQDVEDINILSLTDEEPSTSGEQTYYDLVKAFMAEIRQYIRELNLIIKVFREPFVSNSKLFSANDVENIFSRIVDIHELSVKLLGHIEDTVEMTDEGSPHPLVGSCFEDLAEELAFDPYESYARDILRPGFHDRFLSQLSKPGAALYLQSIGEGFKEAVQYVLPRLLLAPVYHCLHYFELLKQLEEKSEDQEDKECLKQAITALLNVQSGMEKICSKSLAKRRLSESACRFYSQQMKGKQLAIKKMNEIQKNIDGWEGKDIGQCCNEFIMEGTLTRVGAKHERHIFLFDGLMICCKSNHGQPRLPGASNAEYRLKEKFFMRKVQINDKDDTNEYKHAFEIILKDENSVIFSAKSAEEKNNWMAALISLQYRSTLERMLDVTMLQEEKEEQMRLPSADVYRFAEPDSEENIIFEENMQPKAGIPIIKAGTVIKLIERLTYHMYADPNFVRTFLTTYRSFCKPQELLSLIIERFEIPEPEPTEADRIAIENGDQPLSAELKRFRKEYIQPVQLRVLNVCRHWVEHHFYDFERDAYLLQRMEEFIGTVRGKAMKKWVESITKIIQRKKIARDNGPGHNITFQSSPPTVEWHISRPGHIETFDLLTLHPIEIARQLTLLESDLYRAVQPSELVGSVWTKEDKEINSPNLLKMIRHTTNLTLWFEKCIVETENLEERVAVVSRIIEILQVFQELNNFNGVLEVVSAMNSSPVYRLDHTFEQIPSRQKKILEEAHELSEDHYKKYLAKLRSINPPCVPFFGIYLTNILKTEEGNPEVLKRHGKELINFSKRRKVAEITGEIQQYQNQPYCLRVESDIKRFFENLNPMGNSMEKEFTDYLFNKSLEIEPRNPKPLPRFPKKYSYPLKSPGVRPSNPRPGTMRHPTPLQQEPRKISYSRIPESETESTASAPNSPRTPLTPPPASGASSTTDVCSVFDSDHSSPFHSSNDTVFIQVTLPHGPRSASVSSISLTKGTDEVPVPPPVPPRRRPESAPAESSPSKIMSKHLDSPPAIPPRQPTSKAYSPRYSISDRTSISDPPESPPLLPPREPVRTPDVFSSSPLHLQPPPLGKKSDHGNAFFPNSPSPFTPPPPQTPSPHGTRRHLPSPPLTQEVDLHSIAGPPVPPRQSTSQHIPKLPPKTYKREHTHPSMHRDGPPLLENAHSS
From the text: The following method was used to determine the abilities of compounds of the invention to block the interaction of SOS1 with the KRAS G12C protein in vitro. KRAS-G12C/SOS1 BINDING ASSAY KITS (Art. No. 63ADK000CB16PEG) from Cisbio was used in this method. Please refer to the kit instruction for detailed experimental operations.
The experimental process can be briefly described as follows: diluent buffer (Art. No. 62DLBDDF) was used to prepare a working solution with a concentration of 5× for Tag1-SOS1 and Tag2-KRAS-G12C protein. The test compounds were dissolved in DMSO to prepare storage solutions of 10 mM, and then the solutions were diluted with dilution buffer for later use. First, 2 μL of the test compound (the final concentrations of the reaction system were 10000 nM-0.1 nM) was added to the well, then 4 μL of Tag1-SOS1 5× working solution and 4 μL of Tag2-KRAS-G12C 5× working solution were added, and the above mixture was centrifuged, mixed, and stood for 15 minutes; then 10 μL of premixed anti-Tag1-Tb^3+ and anti-Tag2-XL665 were added, and the mixture was incubated at room temperature for 2 hours; finally, a microplate reader was used in […] mode to measure the fluorescence intensity of each well emitting wavelengths of 620 nm and […] under the excitation wavelength of 304 nm, and the fluorescence intensity ratio 665/620 in each well was calculated. Compared with the fluorescence intensity ratio of a control group (0.1% DMSO), the percentage inhibition rates of the test compounds at each concentration were calculated, and the IC50 values of the compounds were obtained by performing nonlinear regression analysis with logarithmic values of the compound concentration-inhibition rate by GraphPad Prism 5 software, which was shown in Table 1.

C=CC(=O)N1CCN(c2nc(=O)n(-c3c(C)ccnc3C(C)C)c3nc(-c4c(O)cccc4F)c(F)cc23)[C@@H](C)C1 [AMG-510, reference compound]
Relative tumor volume (x ± S) ([1]; 16 days after administration): 2.90 ± 0.26
TGI % ([1]; 16 days after administration): 43.0%
Tumor volume (x ± S) ([1]; Day 0 after administration, intragastric): 199 ± 21 mm^3
Tumor volume (x ± S) ([1]; Day 3 after administration, intragastric): 263 ± 17 mm^3
Tumor volume (x ± S) ([1]; Day 7 after administration, intragastric): 343 ± 29 mm^3
Tumor volume (x ± S) ([1]; Day 10 after administration, intragastric): 406 ± 38 mm^3
Tumor volume (x ± S) ([1]; Day 14 after administration, intragastric): 538 ± 47 mm^3
Tumor volume (x ± S) ([1]; Day 16 after administration, intragastric): 563 ± 58 mm^3
Tumor volume (x ± S) ([1]; Table 11, 16 days after administration, in mm³): 563 ± 58
Inhibition rate of tumor weight (%) ([1]; end of the experiment): 44.3%
Tumor weight (g) (x ± S) ([1]; end of the experiment): 0.4203 ± 0.0447 g

COc1cc2nc(C)nc(N[C@H](C)c3cccc(C#N)c3C)c2cc1N1CCN2C(=O)CCC2C1 (stereo partly drawn) [Compound 3, 3-((1R)-1-((7-methoxy-2-methyl-6-(6-oxohexahydropyrrolo[1,2-a]pyrazin-2(1H)-yl)quinazolin-4-yl)amino)ethyl)-2-methylbenzonitrile]
IC50 [2]: 42.9 nM

COc1cc2nc(C)nc(N[C@H](C)c3cccc(C#N)c3C)c2cc1N1CCC(N2CCOCC2)CC1 [Compound 6, (R)-3-(1-((7-methoxy-2-methyl-6-(4-morpholinopiperidin-1-yl)quinazolin-4-yl)amino)ethyl)-2-methylbenzonitrile]
IC50 [2]: 5.5 nM
IC50 [3]: 1.1 nM

COc1cc2nc(C)nc(N[C@H](C)c3cccc(C#N)c3C)c2cc1N1CC2COCC2C1 (stereo partly drawn) [Compound 9, 3-((1R)-1-((7-methoxy-2-methyl-6-(tetrahydro-1H-furo[3,4-c]pyrrol-5(3H)-yl)quinazolin-4-yl)amino)ethyl)-2-methylbenzonitrile]
IC50 [2]: 25 nM
IC50 [3]: 53.7 nM

COc1cc2nc(C)nc(N[C@H](C)c3cccc(C#N)c3C)c2cc1N1CCN(C)CC1 [Compound 10, (R)-3-(1-((7-methoxy-2-methyl-6-(4-methylpiperazin-1-yl)quinazolin-4-yl)amino)ethyl)-2-methylbenzonitrile]
IC50 [2]: 16.8 nM
IC50 [3]: 36.7 nM

COc1cc2nc(C)nc(N[C@H](C)c3cccc(C#N)c3C)c2cc1N1CCC2(CC1)CN(S(C)(=O)=O)C2 [Compound 16, (R)-3-(1-((7-methoxy-2-methyl-6-(2-(methylsulfonyl)-2,7-diazaspiro[3.5]nonan-7-yl)quinazolin-4-yl)amino)ethyl)-2-methylbenzonitrile]
IC50 [3]: 54.3 nM

COc1cc2nc(C)nc(N[C@H](C)c3cccc(C#N)c3C)c2cc1N1CCC(N2CCCC2=O)CC1 [Compound 21, (R)-3-(1-((7-methoxy-2-methyl-6-(4-(2-oxopyrrolidin-1-yl)piperidin-1-yl)quinazolin-4-yl)amino)ethyl)-2-methylbenzonitrile]
IC50 [3]: 63.2 nM

COc1cc2nc(C)nc(N[C@H](C)c3cccc(C#N)c3C)c2cc1N1CCC(N2CCN(S(C)(=O)=O)CC2)CC1 [Compound 23, (R)-3-(1-((7-methoxy-2-methyl-6-(4-(4-(methylsulfonyl)piperazin-1-yl)piperidin-1-yl)quinazolin-4-yl)amino)ethyl)-2-methylbenzonitrile]
IC50 [2]: 41.1 nM

Source: patent publication US20240382475A1, “Quinazoline Derivative, Or Preparation Method Therefor And Use Thereof” (Zhejiang Hisun Pharmaceutical Co., Ltd., priority 2021, published 2024)
